Experiments:
[1] = system: green peach aphid (Myzus persicae); test: Myzus persicae test (Example A2, cabbage leaves dipped); assay type: in vivo; details: dipping
Description: Cabbage leaves (Brassica oleracea) which are severely infested with the green peach aphid (Myzus persicae) are treated by dipping into the active substance preparation of the desired concentration.

[2] = system: green peach aphid (Myzus persicae); test: Myzus persicae test (Example A1, cabbage leaves sprayed); assay type: in vivo; details: spray
[3] = system: army worm larvae (Spodoptera frugiperda); test: Spodoptera frugiperda larvae test (Example C, cabbage leaves sprayed); assay type: in vivo; details: spray
[4] = system: mustard beetle larvae (Phaedon cochleariae); test: Phaedon cochleariae larvae test (Example B, cabbage leaves sprayed); details: 100 g/ha, spray

Compound | Destruction in % after 1 day ([2]; 0.16 g/ha) | Destruction in % after 6 days ([3]; 0.8 g/ha) | Destruction in % after 6 days ([3]; 4 g/ha) | Destruction in % after 2 days [4] | also measured
CN(Cc1ccc(Cl)nc1)C1=CC(=O)OC1 [Compound I-10, 4-{[(6-chloropyrid-3-yl)methyl](methyl)amino}furan-2(5H)-one] |  |  |  |  | Destruction in % after 1 day ([1]; 0.8 ppm): 45%
Cc1cc(C(F)(C(F)(F)F)C(F)(F)F)ccc1NC(=O)c1cccc(I)c1C(=O)NC(C)(C)CS(C)(=O)=O [Flubendiamide, flubendiamide, reference compound] | 0% | 33% | 67% | 17% | 
CN(Cc1cnc(Cl)c(F)c1)C1=CC(=O)OC1 [Compound I-6, 4-{[(6-chloro-5-fluoropyrid-3-yl)methyl](methyl)amino}furan-2(5H)-one] | 30% |  | 0% | 0% | 
O=C1C=C(N(CCF)Cc2ccc(Cl)nc2)CO1 [Compound I-4, 4-{[(6-chloropyrid-3-yl)methyl](2-fluoroethyl)amino}furan-2(5H)-one] |  |  | 0% | 0% | Destruction in % after 1 day ([2]; 4 g/ha): 30%
Cc1cc(C(F)(C(F)(F)F)C(F)(F)F)ccc1NC(=O)c1cccc(Cl)c1C(=O)N[C@@H](C)CS(C)(=O)=O [Compound IIb, (S)-3-chloro-N^1-{2-methyl-4-[1,2,2,2-tetrafluoro-1-(trifluoromethyl)ethyl]phenyl}-N^2-(1-methyl-2-methylsulphonylethyl)phthalamide] |  | 67% |  |  | Destruction in % after 1 day ([2]; 0.8 g/ha): 0%; Destruction in % after 1 day ([1]; 100 ppm): 10%; Destruction in % after 6 days ([3]; 0.16 g/ha): 0%
O=C1C=C(N(Cc2ccc(Cl)nc2)CC(F)F)CO1 [Compound I-5, 4-{[(6-chloropyrid-3-yl)methyl](2,2-difluoroethyl)amino}furan-2(5H)-one] |  | 0% |  |  | 
